In paper PMC3975964, “Protective effect of a sesamin derivative, 3-bis (3-methoxybenzyl) butane-1, 4-diol on ischemic and hypoxic neuronal injury” (Journal of Biomedical Science, 2014):

How the values were obtained:
neurons = experiment: Toxicity of BBD alone to neurons; format: cell-based; conditions: BBD 100 μM alone, data not shown
IL-1 = experiment: Hypoxia-induced IL-1 production (ELISA), BV-2; format: cell-based, murine
Description: (§1) On the day of experiment, culture media were replaced with glucose-free DMEM, then, gassed with 85% N2, 10% H2, and 5% CO2 for various time periods in the absence or presence of various doses of BBD.
(§2) Cytokines (IL-1β, IL-6) and PGE2 were measured using ELISA kits (R&D, Minneapolis, MN, USA). The absorbance at 450 nm was determined using a microplate reader (spectraMAX 340).

p38 [1] = experiment: Western blot of hypoxia-induced signaling, PC12: p38; format: cell-based, rat; conditions: PC12 cells, 10 min hypoxia (Figure 5C), BBD 20 μM
Description: as §1
(§3) Samples containing 25 μg of protein were separated on 12.5% (w/v) sodium dodecyl sulfate-polyacrylamide gels, and transferred to immobilon polyvinylidenedifluoride membranes (Millipore, Bedford, USA). The membranes were incubated for 2 h with 5% (w/v) dry skim milk in TBST buffer to block non-specific binding, then ERK, p38 JNK, AKT-1, COX-2, caspase-3, β-actin proteins for neuron cells were detected by a chemiluminescence detection system according to the manufacturer’s instructions (ECL, Amersham, Berkshire, UK).

COX-2 [2] = experiment: Western blot of hypoxia-induced signaling, BV-2: COX-2; format: cell-based, murine; conditions: BV-2 cells, 10 min hypoxia, BBD 20 μM
Description: as §1, §3

[3] = PAMPA-BBB membrane permeability assay
Description: The blood–brain barrier limits drug access into the brain, due to tight junctions, membrane drug transporters, and unique lipid composition. Porcine whole-brain lipid is successfully used in passive permeability test for CNS drugs.
The parallel artificial membrane permeation assay (PAMPA) was carried out in a sandwich-like 96-well PAMPA plate formed by a top filter plate containing acceptor wells and a bottom plate containing donor wells. Each composite well was divided into two chambers: 300 μl of donor solution (test article or QC standards) at the bottom and 200 μl of acceptor buffer (PBS buffer containing 5% DMSO) at the top, separated by a polyvinylidene fluoride (PVDF, 0.45 μm pore size) membrane, coated with 4 μl of 20 mg/ml porcine polar brain lipid (PBL) in n-dodecane. […] The final DMSO concentration in working stock solution is 5%. Each compound was performed in triplicate. The test compound diffused from the donor well through the lipid membrane and into the acceptor well. The sandwich plate was placed with the plate lid and incubated at room temperature for approximately 18 h. After reaching diffusion equilibration, the PAMPA sandwich plate was disassembled and the concentration of drug in the acceptor, the donor, and the reference wells was determined using a TECAN microplate reader (Durham, NC, USA).

focal cerebral ischemia = experiment: Focal cerebral ischemia (MCAO), infarct size by TTC staining; format: in vivo, Sprague–Dawley rats; conditions: SD rats, BBD 10 mg/kg i.p. 90 min after MCAO; ischemia group 16.1%
Description: (§4) Twenty-four male Sprague-Dawley (SD) rats (200~250 gm) were purchased from National Animal Center, Taipei, Taiwan and randomly divided into the control (normal saline), and BBD groups. The experiment was approved by Institutional Animal Care and Use Committee, Taichung Veterans General Hospital (IACUC LA-97490). Rats were injected intraperitoneally (i.p.) with BBD (10 mg/kg) 90 min after MACO experiment. Each SD rat was anesthetized with chlorohydrate (400 mg/kg) i.p. and its body temperature was maintained at 37°C with a heating pad (CMA/150). A midline neck incision was made and the right carotid artery was exposed and separated from the vago-sympathetic trunk. The right carotid artery was loosely encircled with a 4-O suture for later occlusion. The SD rat's head was placed in a stereotaxic frame (David Kopf, CA, USA) with the nose bar positioned 4.0 mm below the horizontal line. Following a midline incision, the skull was partially removed to expose the right middle cerebral artery. The middle cerebral artery was loosely encircled with an 8-O suture for later occlusion. A focal cerebral ischemia was induced by occlusion of the right common carotid artery and the right cerebral artery (MCAO) for 60 min, followed by reperfusion. […]

IL-6 = experiment: Hypoxia-induced IL-6 production (ELISA), BV-2; format: cell-based, murine
Description: as §1, §2

ERK [4] = experiment: Western blot of hypoxia-induced signaling, BV-2: ERK; format: cell-based, murine; conditions: BV-2 cells, 10 min hypoxia, BBD 20 μM
Description: as §1, §3

BV-2 cells [5] = experiment: LDH release under hypoxia, BV-2; format: cell-based, murine; conditions: BBD 1, 10, 20 μM
Description: (§5) Murine BV-2 microglial cell line was maintained in DMEM supplemented with 10% (v/v) FBS, 100 U/ml penicillin and 100 μg/ml streptomycin (P/S) in a humidified incubator under 5% CO2 at 37°C. Rat pheochromacytoma PC12 cell line was maintained in DMEM supplemented with 10% FBS, 5% horse serum, P/S at 37°C under 5% CO2. Confluent cultures were passaged by trypsinization. In all experiments, the cells were treated with BBD immediately before hypoxia. BBD was dissolved in DMSO. The final concentration of DMSO added to cells never exceeded 0.1% (v/v).
as §1
(§6) Cytotoxicity was determined by measuring the release of LDH. PC12 or BV-2 cells treated with various concentrations of BBD were stressed with hypoxia for one hour and the supernatant was then assayed for LDH activity. An absorbance was read at 490/630 nm using a spectraMAX 340 microtiter plate reader. Data were expressed as the mean percent of viable cells vs. the control.

ROS in PC12 cells = experiment: Hypoxia-induced ROS generation (DCF), PC12; format: cell-based, rat; conditions: hypoxia 30 min, BBD 1, 10, 20 μM
Description: as §1
Intracellular accumulation of ROS was determined using H2DCF-DA, which is a nonfluorescent compound that accumulates in cells following deacetylation. H2DCF then reacts with ROS to form fluorescent dichlorofluorescein (DCF). PC12 cells were plated in 96-well plates and grown for 24 h before addition of DMEM plus 10 μM H2DCF-DA, incubated for 60 min at 37°C, and treated with various concentrations of BBD for hypoxia 30 min. Cells were then washed twice at room temperature with Hank’s balanced salt solution (HBSS without phenol red). Cellular fluorescence was monitored on a Fluoroskan Ascent fluorometer (Labsystems Oy, Helsinki, Finland) using an excitation wavelength of 485 nm and emission wavelength of 538 nm.

ROS in BV-2 cells = experiment: Hypoxia-induced ROS generation (DCF), BV-2; format: cell-based, murine
PC12 cells [6] = experiment: LDH release under hypoxia, PC12; format: cell-based, rat; conditions: BBD 1, 10, 20 μM
Description: as §5, §1, §6

[7] = system: superoxide dismutase (SOD) activity; experiment: SOD activity of ischemic brain; format: in vivo, Sprague–Dawley rats; conditions: SD rat brain, BBD 10 mg/kg i.p. 90 min after MCAO
Description: as §4, with “Sprague–Dawley” for “Sprague-Dawley”, “rat’s” for “rat's”
Superoxide dismutase (SOD) activity was determined by a Superoxide Dismutase assay kit (Cayman, Ann Arbor, MI, USA). […]

PC12 cells [8] = experiment: MTT cell viability under hypoxia, PC12; format: cell-based, rat; conditions: hypoxia 30 min, BBD 1 to 20 μM
Description: as §5, §1
(§7) Cell viability was measured using blue formazan that was metabolized from colorless 3-(4,5-dimethyl-thiazol-2-yl)-2,5-diphenyl tetrazolium bromide (MTT) by mitochondrial dehydrogenases, which are active only in live cells. PC12 or BV2 cells were preincubated in 24-well plates at a density of 5 × 10^5 cells per well for 24 h. […] One hour later, 200 μl of solubilization solution were added to each well and absorption values read at 540 nm on microtiter plate reader (spectraMAX 340, Molecular Devices, Sunnyvale, CA, USA). Data were expressed as the mean percent of viable cells vs. control.

MDA in PC12 cells = experiment: Lipid peroxidation (MDA) under hypoxia, PC12; format: cell-based, rat; conditions: hypoxia 30 min, BBD 1, 10, 20 μM
From the text: as §1
(§8) Lipid peroxidation is quantified by measuring malondialdehyde (MDA) of PC12 cells and brain tissue of SD rats by lipid peroxidation (LPO) assay kit (Cayman). This kit works on the principle of condensation of one molecule of either MDA or 4-hydroxyalkenals with two molecules of N-methyl-2-phenylindole to yield a stable chromophore. MDA levels were assayed by measuring the amount expressed in 5 × 10^5 cells of PC12 and SD brain tissue, and the absorbance at 500 nm was determined using a microplate reader (spectraMAX 340).

JNK [9] = experiment: Western blot of hypoxia-induced signaling, BV-2: JNK; format: cell-based, murine; conditions: BV-2 cells, 10 min hypoxia, BBD 20 μM
Description: as §1, §3

AKT-1 = experiment: Western blot of hypoxia-induced signaling, BV-2: AKT-1; format: cell-based, murine; conditions: BV-2 cells, 10 min hypoxia, BBD 20 μM
Description: as §1, §3

[10] = system: malondialdehyde (MDA) of brain tissue; experiment: Lipid peroxidation (MDA) of ischemic brain tissue; format: in vivo, Sprague–Dawley rats; conditions: SD rat brain, BBD 10 mg/kg i.p. 90 min after MCAO
Description: as §4, with “Sprague–Dawley” for “Sprague-Dawley”, “rat’s” for “rat's”, “artery.” for “artery. The middle cerebral artery was loosely encircled with an 8-O suture for later occlusion. A focal cerebral ischemia was induced by occlusion of the right common carotid artery and the right cerebral artery (MCAO) for 60 min, followed by reperfusion.”
as §8, with “This kit works on the principle of condensation of one molecule of either MDA or 4-hydroxyalkenals with two molecules of N-methyl-2-phenylindole to yield a stable chromophore.” left out

MDA in BV-2 cells = experiment: Lipid peroxidation (MDA) under hypoxia, BV-2; format: cell-based, murine; conditions: hypoxia 30 min, BBD 1, 10, 20 μM
ERK [11] = experiment: Western blot of hypoxia-induced signaling, PC12: ERK; format: cell-based, rat; conditions: PC12 cells, 10 min hypoxia (Figure 5C), BBD 20 μM
Description: as §1, §3

BV-2 cells [12] = experiment: MTT cell viability under hypoxia, BV-2; format: cell-based, murine; conditions: hypoxia 30 min, BBD 1, 10, 20 μM
Description: as §5, §1, §7

PGE2 = experiment: Hypoxia-induced PGE2 release (ELISA), BV-2; format: cell-based, murine; conditions: BV-2 cells, hypoxia 30 min, BBD 10 and 20 μM
Description: as §1, §2

p38 [13] = experiment: Western blot of hypoxia-induced signaling, BV-2: p38; format: cell-based, murine; conditions: BV-2 cells, 10 min hypoxia, BBD 20 μM
Description: as §1, §3

Caspase-3 = experiment: Western blot of hypoxia-induced signaling, BV-2: Caspase-3; format: cell-based, murine; conditions: BV-2 cells, 10 min hypoxia, BBD 20 μM
Description: as §1, §3

JNK [14] = experiment: Western blot of hypoxia-induced signaling, PC12: JNK; format: cell-based, rat; conditions: PC12 cells, 10 min hypoxia (Figure 5C), BBD 20 μM
Description: as §1, §3

COX-2 [15] = experiment: Western blot of hypoxia-induced signaling, PC12: COX-2; format: cell-based, rat; conditions: PC12 cells, 10 min hypoxia (Figure 5C), BBD 20 μM
Description: as §1, §3

[16] = PAMPA-BBB, known value; no reference given; cited from earlier work
[17] = BV-2 cells, hypoxia 30 min, BBD 1, 10, 20 μM
[18] = hypoxia, concentration not given

## COc1cccc(CC(CO)C(CO)Cc2cccc(OC)c2)c1 (stereo not shown) [BBD, 3-bis (3-methoxybenzyl) butane-1,4-diol]
neurons
  toxicity to neurons: not toxic
IL-1; [17]
  hypoxia-induced IL-1 production: dose-dependently decreased
IL-1; [18]
  inhibition of hypoxia-induced IL-1 production: 40-50%
p38 [1]
  suppressed hypoxia induced expression of p38: -10 ± 9%
COX-2 [2]
  reduced expression of COX-2: 13 ± 7%
[3]; PAMPA-BBB predicted BBB permeation class
  Classification: BBB+ (BBB + compound (high BBB permeation predicted): Pe (10^-6 cm s^-1) > 4.0)
[3]; pig, PAMPA, pH 7.4
  Papp at 100 μg/ml: 20.9 ± 3.05 ×10⁻⁶ cm/s
Focal cerebral ischemia
  infarct size: 4.9%
IL-6; [17]
  hypoxia-induced IL-6 production: dose-dependently decreased
IL-6; [18]
  inhibition of hypoxia-induced IL-6 production: 40-50%
ERK [4]
  reduced expression of ERK: 10 ± 7%
BV-2 cells [5]
  hypoxia-induced LDH release: reduced
ROS in PC12 cells
  hypoxia-induced ROS accumulation (DCF signal): decreasing the ROS accumulation
ROS in BV-2 cells; [17]
  hypoxia-induced ROS accumulation (DCF signal): decreasing the ROS accumulation
ROS in BV-2 cells; hypoxia, cell line and concentration not stated
  inhibition of hypoxia-induced ROS production: 40-50%
PC12 cells [6]
  hypoxia-induced LDH release: decreased
[7]
  increase of SOD activity as compared to the ischemia group: 24%
[7]; ischemia group 68 μ/mL
  SOD activity: 84 μ/mL
PC12 cells [8]
  cell viability (MTT) under hypoxia: preserved
MDA in PC12 cells
  hypoxia-induced increase in MDA level: suppressed
JNK [9]
  reduced expression of JNK: 88 ± 6%
AKT-1
  reduced expression of AKT-1: 45 ± 6%
[10]
  decrease of MDA level as compared to the ischemia group: 6%
[10]; ischemia group 83 μM
  MDA level: 78 µM
MDA in BV-2 cells
  hypoxia-induced increase in MDA level: suppressed
ERK [11]
  suppressed hypoxia induced expression of ERK: 9 ± 7%
BV-2 cells [12]
  cell viability (MTT) under hypoxia: increased
PGE2
  hypoxia-induced PGE2 release: decreased PGE2 release from BV-2 cells significantly
p38 [13]
  reduced expression of p38: -8 ± 10%
Caspase-3
  reduced expression of Caspase-3: 50 ± 7%
JNK [14]
  suppressed hypoxia induced expression of JNK: 86 ± 5%
COX-2 [15]
  suppressed hypoxia induced expression of COX-2: 75 ± 11%

## c1cc2c(cc1[C@H]1OC[C@H]3[C@@H]1CO[C@@H]3c1ccc3c(c1)OCO3)OCO2 [Sesamin, sesamin]
[3]; pig, PAMPA, 100 μg/ml, pH 7.4
  Pe: 0.00 ± 0.01 10^ -6 cm/s

## Cn1c(=O)c2[nH]cnc2n(C)c1=O [Theophylline, theophylline]
[16]
  Known Pe: 0.12 ~ 0.18 10^ -6 cm/s
